Measurements from patent US9657147B2, “Method for preparing glycolide polyester by ring opening polymerization” (TEKNOLOGIAN TUTKIMUSKESKUS VTT OY, priority 2011, dated 2017).

Assay: Test of solubility of the starting materials and homopolyglycolide in organic solvents
Description: A solvent which could be used in the ring opening polymerization should meet criteria: i) the solvent should be good enough to dissolve all starting materials including monomer (glycolide), co-monomer, initiator, catalyst and dispersion stabilizer, and ii) it should not dissolve resulting polymer (homopolyglycolide and co-polymers).

solution concentration permitted in acetonitrile (solvent acetonitrile): 50 wt-%
solubility in Toluene (solvent toluene): bad
SMILES: O=C1COC(=O)CO1 [Glycolide]
